Data reported in publication PMC11653702, “Targeting the SPC25/RIOK1/MYH9 Axis to Overcome Tumor Stemness and Platinum Resistance in Epithelial Ovarian Cancer” (Advanced Science, 2024).

What was measured:
OVCAR3 cells = test: Tumor sphere formation, XAV939, SPC25-overexpressing OVCAR3; format: cell-based, human; conditions: for negative ratio / number of negative wells: XAV939 100uM, 24 wells
COV644 cells = test: Tumor sphere formation, XAV939, SPC25-overexpressing COV644; format: cell-based, human; conditions: for Log(negative ratio, 2) / negative ratio / number of negative wells: XAV939 100uM, 24 wells
patients with EOC = test system: patients with EOC; set-up: method as in 2 sources, ref 59 = [59]; PMID 22204724; doi:10.1056/NEJMoa1104390; 59 R. A. Burger , M. F. Brady , M. A. Bookman , G. F. Fleming , B. J. Monk , H. Huang , R. S. Mannel , H. D. Homesley , J. Fowler , B. E. Greer , M. Boente , M. J. Birrer , S. X. Liang , G. G. Oncolog ||| ref 61, 62, 63 = [61]; PMID 25481791; doi:10.1016/S1470-2045(14)71135-0; 61 A. M. Oza , D. Cibula , A. O. Benzaquen , C. Poole , R. H. Mathijssen , G. S. Sonke , N. Colombo , J. Spacek , P. Vuylsteke , H. Hirte , S. Mahner , M. Plante , B. Schmalfeldt , H. Mackay , J. Rowb || [62]; PMID 34485111; doi:10.3389/fonc.2021.638295; 62 N. Ren , L. Zhang , J. Yu , S. Guan , X. Dai , L. Sun , M. Ying , Front. Oncol. 2021 , 11 , 638295 . 34485111 10.3389/fonc.2021.638295 PMC8414886 || [63]; PMID 27663600; doi:10.1158/1078-0432.CCR-16-1546; 63 J. M. Lee , C. J. Peer , M. Yu , L. Amable , N. Gordon , C. M. Annunziata , N. Houston , A. K. Goey , T. M. Sissung , B. Parker , L. Minasian , V. L. Chiou , R. F. Murphy , B. C. Widemann , W. D. F; conditions: cited from earlier work; for PFS or OS during chemotherapy: PARP inhibitors during chemotherapy; for maintenance treatment benefit for patient survival: PARP inhibitors, maintenance treatment of EOC

Oc1nc(-c2ccc(C(F)(F)F)cc2)nc2c1CSCC2 [XAV939]
enhanced stemness attributable to SPC25 overexpression (tumor sphere formation) (OVCAR3 cells; SPC25-overexpressing OVCAR3): effectively mitigated the enhanced stemness
negative ratio (OVCAR3 cells; OVCAR3-SPC25, 50 cells): 1
number of negative wells (OVCAR3 cells; OVCAR3-SPC25, 50 cells): 24
negative ratio (OVCAR3 cells; OVCAR3-SPC25, 100 cells): 1
number of negative wells (OVCAR3 cells; OVCAR3-SPC25, 100 cells): 24
negative ratio (OVCAR3 cells; OVCAR3-SPC25, 200 cells): 0.9167
number of negative wells (OVCAR3 cells; OVCAR3-SPC25, 200 cells): 22
negative ratio (OVCAR3 cells; OVCAR3-SPC25, 400 cells): 0.875
number of negative wells (OVCAR3 cells; OVCAR3-SPC25, 400 cells): 21
negative ratio (OVCAR3 cells; OVCAR3-SPC25, 800 cells): 0.8333
number of negative wells (OVCAR3 cells; OVCAR3-SPC25, 800 cells): 20
negative ratio (OVCAR3 cells; OVCAR3-Vector, 50 cells): 1
number of negative wells (OVCAR3 cells; OVCAR3-Vector, 50 cells): 24
negative ratio (OVCAR3 cells; OVCAR3-Vector, 100 cells): 1
number of negative wells (OVCAR3 cells; OVCAR3-Vector, 100 cells): 24
negative ratio (OVCAR3 cells; OVCAR3-Vector, 200 cells): 0.9583
number of negative wells (OVCAR3 cells; OVCAR3-Vector, 200 cells): 23
negative ratio (OVCAR3 cells; OVCAR3-Vector, 400 cells): 0.9167
number of negative wells (OVCAR3 cells; OVCAR3-Vector, 400 cells): 22
negative ratio (OVCAR3 cells; OVCAR3-Vector, 800 cells): 0.8333
number of negative wells (OVCAR3 cells; OVCAR3-Vector, 800 cells): 20
enhanced stemness attributable to SPC25 overexpression (tumor sphere formation) (COV644 cells; SPC25-overexpressing COV644): effectively mitigated the enhanced stemness
Log(negative ratio, 2) (COV644 cells; COV644-SPC25, 50 cells): 0
negative ratio (COV644 cells; COV644-SPC25, 50 cells): 1
number of negative wells (COV644 cells; COV644-SPC25, 50 cells): 24
Log(negative ratio, 2) (COV644 cells; COV644-SPC25, 100 cells): 0
negative ratio (COV644 cells; COV644-SPC25, 100 cells): 1
number of negative wells (COV644 cells; COV644-SPC25, 100 cells): 24
number of negative wells (COV644 cells; COV644-SPC25, 200 cells): 23
number of negative wells (COV644 cells; COV644-SPC25, 400 cells): 23
number of negative wells (COV644 cells; COV644-SPC25, 800 cells): 21
Log(negative ratio, 2) (COV644 cells; COV644-Vector, 50 cells): 0
negative ratio (COV644 cells; COV644-Vector, 50 cells): 1
number of negative wells (COV644 cells; COV644-Vector, 50 cells): 24
Log(negative ratio, 2) (COV644 cells; COV644-Vector, 100 cells): 0
negative ratio (COV644 cells; COV644-Vector, 100 cells): 1
number of negative wells (COV644 cells; COV644-Vector, 100 cells): 24
Log(negative ratio, 2) (COV644 cells; COV644-Vector, 200 cells): 0
negative ratio (COV644 cells; COV644-Vector, 200 cells): 1
number of negative wells (COV644 cells; COV644-Vector, 200 cells): 24
number of negative wells (COV644 cells; COV644-Vector, 400 cells): 23
number of negative wells (COV644 cells; COV644-Vector, 800 cells): 22

NC(=O)c1cccc2cn(-c3ccc([C@@H]4CCCNC4)cc3)nc12 [niraparib]
PFS or OS during chemotherapy (patients with EOC): marginal PFS or OS enhancements
maintenance treatment benefit for patient survival (patients with EOC): marked benefits

O=C(c1cc(Cc2n[nH]c(=O)c3ccccc23)ccc1F)N1CCN(C(=O)C2CC2)CC1 [olaparib]
PFS or OS during chemotherapy (patients with EOC): marginal PFS or OS enhancements
maintenance treatment benefit for patient survival (patients with EOC): marked benefits

bevacizumab: biological agent combined with platinum-based regimens
PFS prolongation (patients with EOC; added to platinum-based regimens, recurrent patients with EOC, compared with controls): 3–4 months
